Reference: PubChem BioAssay (NCI)
Values joined by “and” are separate entries in the source; they are usually repeats but may differ in a detail not shown here. Equal values may be shown once.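 Exposure lasted 48 hours, with cells grown in 96-well plates and compounds tested at five concentrations. Here, GI50 denotes the concentration required for 50% inhibition of growth. TGI: concentration producing complete growth inhibition.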

How the values were obtained:
Assay in all cases: NCI tumour cell line growth inhibition, 48 h
HOP-62 NSCLC = test system: HOP-62 NSCLC
BT-549 breast = test system: BT-549 breast
RPMI-8226 leukemia = test system: RPMI-8226 leukemia
SF-539 CNS = test system: SF-539 CNS
TK-10 renal = test system: TK-10 renal
HCC-2998 colon = test system: HCC-2998 colon
NCI-H460 lung = test system: NCI-H460 lung
HCT-116 colon = test system: HCT-116 colon
SNB-19 CNS = test system: SNB-19 CNS
LOX IMVI melanoma = test system: LOX IMVI melanoma

Row | Structure (SMILES) | GI50 (HOP-62 NSCLC) | TGI (HOP-62 NSCLC) [µM] | GI50 (BT-549 breast) | TGI (BT-549 breast) [µM] | GI50 (RPMI-8226 leukemia) | TGI (RPMI-8226 leukemia) | GI50 (SF-539 CNS) | TGI (SF-539 CNS) | GI50 (TK-10 renal) [µM] | TGI (TK-10 renal) [µM] | GI50 (HCC-2998 colon) | TGI (HCC-2998 colon) | GI50 (NCI-H460 lung) | TGI (NCI-H460 lung) | GI50 (HCT-116 colon) | TGI (HCT-116 colon) [µM] | GI50 (SNB-19 CNS) | TGI (SNB-19 CNS) [µM] | GI50 (LOX IMVI melanoma) | TGI (LOX IMVI melanoma) [µM]
1 | COc1cccc(-c2cc(NCc3ccc4c(c3)OCO4)nc(N)n2)c1 | 0.362 µM | 17.4 | 0.149 µM | 5.15 | 0.172 µM | 34.2 µM | 0.0909 µM | 3.22 µM | 8.96 | 29 | 0.137 µM | 2.9 µM | 0.0428 µM | 9.59 µM | 0.0473 µM | 11.6 | 0.143 µM | 45.4 | 0.0773 µM | 19.4
2 | C[C@H]1[C@H](C)CC[C@]2(C(=O)O)CC[C@]3(C)C(=CC[C@@H]4[C@@]5(C)CC[C@H](OC(=O)/C=C\c6ccc(O)cc6)C(C)(C)[C@@H]5CC[C@]43C)[C@H]12 | 2.26 µM | 12.8 | 9.58 µM | 31.2 | 1.8 µM | 10.3 µM | 2.9 µM | 13.5 µM | 1.15 | 4.66 | 2.92 µM | 14.1 µM | 2.23 µM | 10.9 µM | 1.53 µM | 3.98 | 10.5 µM | 31.1 | 3.86 µM | 15.9
3 | COc1cc2c(cc1C)NC(=O)/C2=C/c1c(C)nc2sc(C)cn12 | > 100 µM | > 100 | 40.4 µM | > 100 | 31.3 µM | > 100 µM | > 100 µM | > 100 µM | 68 | > 100 | 31.7 µM | > 100 µM | 45.7 µM | > 100 µM | 53.5 µM | > 100 | > 100 µM | > 100 | > 100 µM | > 100
4 | CCN1CCN(Cc2ccc3cc(C(=O)Nc4cc(NC(=O)c5ccc6c(c5)OCCO6)ccc4F)ccc3n2)CC1 | 0.0617 µM | 12 | 0.146 µM | 7.82 | 0.0403 µM | 0.325 µM | 0.0824 µM | 0.72 µM | 0.0429 | 4.29 | 0.0511 µM | 5.73 µM | 0.037 µM | 0.563 µM | 0.0354 µM | 13 | 0.165 µM | 11.2 | 0.0343 µM | 1.43
5 | COc1ccc2c(c1)CC[C@@H]1[C@@H]2CC[C@]2(C)c3c(cc(C(=O)c4ccccc4)c4sccc34)C[C@@H]12 | > 100 µM | > 100 | > 100 µM | > 100 | > 100 µM | > 100 µM | > 100 µM | > 100 µM | > 100 | > 100 | > 100 µM | > 100 µM | > 100 µM | > 100 µM | > 100 µM | > 100 | > 100 µM | > 100 | > 100 µM | > 100
6 | CCNCCNc1cc(C2CCCC2)c(C#N)c2nc3ccccc3n12 | 3.72 µM | 14.9 | 2.45 µM | 5.84 | 2.69 µM | 7.35 µM | 1.67 µM | 3.25 µM | 1.84 | 5.14 | 3.48 µM | 15.3 µM | 2.75 µM | 7.19 µM | 1.95 µM | 3.89 | 6.26 µM | 21.1 | 1.76 µM | 3.3
7 | O=C(Nc1ncc(Cc2ccc(Cl)cc2)s1)c1ccc2c(c1)OCCO2 | 0.0948 µM | > 41.6 | 0.207 µM | > 83.4 | 0.0526 µM | > 100 µM | 0.0469 µM | 0.571 µM | 0.245 | > 32.5 | 0.223 µM | 20.3 µM | 0.0404 µM | 38.7 µM | 0.0419 µM | > 100 | 0.08 µM | > 92.4 | 0.0742 µM | > 100
8 | COc1ccc2oc(-c3ccc(Cl)cc3)c(N3CCN(C)CC3)c2c1 | 1.82 µM | 3.86 | 6.39 µM | 20.7 | 1.25 µM | 4.72 µM | 1.78 µM | 3.37 µM | 1.83 | 3.58 | 2.02 µM | 4.13 µM | 1.94 µM | 4.16 µM | 1.98 µM | 4.59 | 1.97 µM | 5.18 | 1.61 µM | 3.07
9 | OCCCNC(=S)Nc1ccc(-c2nc3ccccc3s2)cc1 | 31.8 µM | > 100 | 25 µM | 82.9 | 26.5 µM | > 100 µM | 29.8 µM | 95.4 µM | 19.3 | 55.8 | 13.7 µM | 26.8 µM | 25.9 µM | > 100 µM | 19.9 µM | 46.2 | 32.2 µM | > 100 | 17.9 µM | 38.2
10 | Cn1cc(-c2nc(-c3cn(C)c4ncccc34)cs2)c2cc(F)ccc21 | 2.67 µM | 84.7 | 2.2 µM | 37.6 | 3.65 µM | > 100 µM | 1.8 µM | 5.28 µM | 3.01 | 38 | 0.962 µM | 24.2 µM | 1.12 µM | 18.9 µM | 0.775 µM | 41.2 | 2.89 µM | > 100 | 1.15 µM | 5.69
11 | Cc1ccc(S(=O)(=O)C2=C3C(=C(c4ccccc4)c4ccccc43)CN(S(=O)(=O)c3ccc(C)cc3)C2)cc1 | 15.4 µM | 51.9 | 1.93 µM | 4.65 | 1.41 µM | 7.41 µM | 10.9 µM | 49 µM | 14.2 | 30.1 | 22.5 µM | > 100 µM | 1.94 µM | 15.1 µM | 2 µM | 7.78 | 12.9 µM | 55.7 | 1.12 µM | 2.42
12 | C#CCOc1c(OC)cc(C(=O)/C(C)=C/c2cccc(N=[N+]=[N-])c2)cc1OC | 0.214 µM | > 100 | 0.131 µM | 7.1 | 0.255 µM | > 100 µM | 0.13 µM | 0.478 µM | 0.325 | 38.9 | 0.464 µM | > 100 µM | 0.329 µM | 20.2 µM | 0.0468 µM | 10.8 | 0.333 µM | > 100 | 0.642 µM | > 100
13 | Cc1cccc2c(=O)c3c(sc12)c(NCCN)nc1ccccc13 | 0.728 µM | 1.65 | 1.33 µM | 4.07 | 0.851 µM | 1.89 µM | 0.917 µM | 1.77 µM | 1.15 | 1.97 | 0.798 µM | 1.58 µM | 0.768 µM | 1.54 µM | 0.759 µM | 1.43 | 0.948 µM | 2.56 | 0.783 µM | 1.48
14 | COc1cc([C@@H]2c3cc4c(cc3[C@H](O)[C@H]3COC(=O)[C@@H]23)OCO4)cc(OC)c1OC | 0.533 µM and 0.226 µM | > 100 | 0.632 µM and 0.259 µM | > 42.5 | 0.566 µM and 0.3 µM | > 10 µM and 1.37 µM | 0.256 µM and 0.094 µM | 0.876 µM and 0.4 µM | 0.743 | 9.86 | 0.948 µM and 0.159 µM | > 6.16 µM and 0.647 µM | 0.371 µM and 0.138 µM | > 10 µM and 3.07 µM | 0.406 µM and 0.185 µM | > 10 | 0.462 µM and 0.231 µM | > 100 | 0.46 µM and 0.623 µM | > 100
15 | O=C1/C(=c2\c3ccccc3n3c(=O)c4ccccc4nc23)Nc2ccccc21 | – | > 100 | – | > 100 | – | > 100 µM | – | > 100 µM | – | > 100 | – | > 100 µM | – | > 100 µM | – | > 100 | – | > 100 | – | > 100
